Measured values from patent US20250171465A1, “AKT INHIBITORS” (Stablix, Inc., priority 2023, published 2025).

Tested on: KU1919.1
Experiment: Cell Titer Glo (CTG) proliferation assay, KU1919
Format: cell-based
Details: Homo sapiens, KU-19-19; KU1919.1 cells, 72.0 hrs.; read-out: AVE CTG Proliferation KU1919.1 72.0 hrs.
Method: Seed cells in 40 μL of cell culture media into each well of 384-well cell culture plate, spin them at room temperature at 1,000 RPM for 1 minute and then transfer the plates into 37° C. 5% CO2 incubator overnight. Next day, treat cells with 40 nL of diluted compound and return to incubator. After compound treatment for 3 days, Add 30 μL of CellTiter-Glo reagent (Promega) into each well to be detected. Then place the plates at room temperature for 30 min followed by reading on EnVision. Inhibition activity calculated as % DMSO=100×(LumSample-Lum low control)/(Lum high control-Lum low control) where high control is from cells treated with 0.1% DMSO and Low control obtained from PBS only. Use XLFit (equation 201) to calculate IC50 (A+ ((B−A)/(1[…]((x/C)^D)))) where A: Bottom, B: Top, C: IC50, D: Slope.

Structure (SMILES)	IC50 [µM]
CCc1cccc(-c2cnc(C(=O)N3CCN(CC4CCN(CC(=O)NCCNC[C@@H](C(=O)N5CCN(c6ncnc7c6[C@H](C)C[C@H]7O)CC5)c5ccc(Cl)cc5)CC4)CC3)c(NC(=O)CNCc3ccncn3)c2)c1 [Compound I-166]	1 to 5
CCc1cccc(-c2cnc(C(=O)NCCOCCNCC[C@H](NC(=O)C3(N)CCN(c4ncnc5[nH]ccc45)CC3)c3ccc(Cl)cc3)c(NC(=O)CN3CCOCC3)c2)c1 [Compound I-178]	1 to 5
NC1(C(=O)N[C@@H](CCN2CCC(OC3CCN(C(=O)[C@H](NC(=O)c4ccc(C5CCN(C(=O)CNCc6ccc(F)cc6F)CC5)cc4)C4CCCCC4)CC3)CC2)c2ccc(Cl)cc2)CCN(c2ncnc3[nH]ccc23)CC1 [Compound I-220]	1 to 5
NC1(C(=O)N[C@@H](CCN2CCC(OC3CCN(C(=O)[C@H](NC(=O)c4cc(C5CCCN(C(=O)C6CC6)C5)ccc4F)C4CCCCC4)CC3)CC2)c2ccc(Cl)cc2)CCN(c2ncnc3[nH]ccc23)CC1 (some centres unmarked) [Compound I-221]	1 to 5
NC1(C(=O)N[C@@H](CCN2CCC(OC3CCN(C(=O)[C@H](NC(=O)c4cc(C5CCCN(C(=O)CNCc6ccc(F)cc6F)C5)ccc4F)C4CCCCC4)CC3)CC2)c2ccc(Cl)cc2)CCN(c2ncnc3[nH]ccc23)CC1 (some centres unmarked) [Compound I-222]	1 to 5
NC1(C(=O)N[C@@H](CCNS(=O)(=O)CCCCNC(=O)[C@H](NC(=O)c2cccc(C3CN(C(=O)C4CC4)C3)c2)C2CCCCC2)c2ccc(Cl)cc2)CCN(c2ncnc3[nH]ccc23)CC1 [Compound I-228]	> 10
NC1(C(=O)N[C@@H](CCN2CCN(C(=O)CN3CCC(OC4CCN(C(=O)[C@H](NC(=O)c5ccc(C6CN(C(=O)C7CC7)C6)cc5)C5CCCCC5)CC4)CC3)CC2)c2ccc(Cl)cc2)CCN(c2ncnc3[nH]ccc23)CC1 [Compound I-229]	1 to 5
NC1(C(=O)N[C@@H](CCN2CCC(OC3CCN(C(=O)[C@H](NC(=O)c4ccc(C5CCN(C(=O)C6CC6)CC5)cc4)C4CCCCC4)CC3)CC2)c2ccc(Cl)cc2)CCN(c2ncnc3[nH]ccc23)CC1 [Compound I-231]	1 to 5
NC1(C(=O)N[C@@H](CCN2CCN(C(=O)C34CCC(CN5CCN(C(=O)[C@H](NC(=O)c6cccc(C7CCCN(C(=O)C8CC8)C7)c6)C6CCCCC6)CC5)(CC3)OC4)CC2)c2ccc(Cl)cc2)CCN(c2ncnc3[nH]ccc23)CC1 (some centres unmarked) [Compound I-232]	> 10
NC1(C(=O)N[C@@H](CCN2CCN(C(=O)CN3CCC(CN4CCN(C(=O)c5cccc(C6CCCN(C(=O)C7CC7)C6)c5)CC4)CC3)CC2)c2ccc(Cl)cc2)CCN(c2ncnc3[nH]ccc23)CC1 (some centres unmarked) [Compound I-233]	5 to 10
NC1(C(=O)N[C@@H](CCNS(=O)(=O)CCCCNC(=O)[C@H](NC(=O)c2cccc(C3CCCN(C(=O)C4CC4)C3)c2)C2CCCCC2)c2ccc(Cl)cc2)CCN(c2ncnc3[nH]ccc23)CC1 (some centres unmarked) [Compound I-234]	> 10
NC1(C(=O)N[C@@H](CCOCCN2CCC(OC3CCN(C(=O)[C@H](NC(=O)c4cccc(C5CCCN(C(=O)CNCc6ccc(F)cc6F)C5)c4)C4CCCCC4)CC3)CC2)c2ccc(Cl)cc2)CCN(c2ncnc3[nH]ccc23)CC1 (some centres unmarked) [Compound I-236]	0.5 to 1
NC1(C(=O)N[C@@H](CCNC(=O)[C@H](NC(=O)C2CC2)C2CCCCC2)c2ccc(Cl)cc2)CCN(c2ncnc3[nH]ccc23)CC1 [Compound I-237]	5 to 10
NC1(C(=O)N[C@@H](CCNS(=O)(=O)CCCCNC(=O)[C@H](NC(=O)c2cccc(C3CN(C(=O)CNCc4ccc(F)cc4F)C3)c2)C2CCCCC2)c2ccc(Cl)cc2)CCN(c2ncnc3[nH]ccc23)CC1 [Compound I-238]	> 10
NC1(C(=O)N[C@@H](CCNS(=O)(=O)CCCCNC(=O)[C@H](NC(=O)c2cccc(C3CCCN(C(=O)CNCc4ccc(F)cc4F)C3)c2)C2CCCCC2)c2ccc(Cl)cc2)CCN(c2ncnc3[nH]ccc23)CC1 (some centres unmarked) [Compound I-239]	> 10
NC1(C(=O)N[C@@H](CCN2CCC(OC3CCN(C(=O)[C@H](NC(=O)c4cccc(C5CN(C(=O)C6CC6)C5)c4)C4CCCCC4)CC3)CC2)c2ccc(Cl)cc2)CCN(c2ncnc3[nH]ccc23)CC1 [Compound I-243]	1 to 5
NC1(C(=O)N[C@@H](CCN2CCC(OC3CCN(C(=O)[C@H](NC(=O)c4cccc(C5CN(C(=O)CNC6CC6)C5)c4)C4CCCCC4)CC3)CC2)c2ccc(Cl)cc2)CCN(c2ncnc3[nH]ccc23)CC1 [Compound I-244]	1 to 5
NC1(C(=O)N[C@@H](CCN2CCC(OC3CCN(C(=O)[C@H](NC(=O)c4cccc(C5CN(C(=O)CNCc6ccc(F)cc6F)C5)c4)C4CCCCC4)CC3)CC2)c2ccc(Cl)cc2)CCN(c2ncnc3[nH]ccc23)CC1 [Compound I-245]	0.5 to 1
NC1(C(=O)N[C@@H](CCN2CCN(C(=O)C34CCC(CN5CCN(C(=O)c6cccc(C7CCCN(C(=O)C8CC8)C7)c6)CC5)(CC3)OC4)CC2)c2ccc(Cl)cc2)CCN(c2ncnc3[nH]ccc23)CC1 (some centres unmarked) [Compound I-246]	1 to 5
NC1(C(=O)N[C@@H](CCN2CCN(C(=O)CN3CCC(CN4CCN(C(=O)[C@H](NC(=O)c5cccc(C6CCCN(C(=O)C7CC7)C6)c5)C5CCCCC5)CC4)CC3)CC2)c2ccc(Cl)cc2)CCN(c2ncnc3[nH]ccc23)CC1 (some centres unmarked) [Compound I-247]	1 to 5
NC1(C(=O)N[C@@H](CCN2CCC(OC3CCN(C(=O)[C@H](NC(=O)c4cccc(C5CCCN(C(=O)C6CC6)C5)c4)C4CCCCC4)CC3)CC2)c2ccc(Cl)cc2)CCN(c2ncnc3[nH]ccc23)CC1 (some centres unmarked) [Compound I-249]	1 to 5
NC1(C(=O)N[C@@H](CCN2CCC(OC3CCN(C(=O)[C@H](NC(=O)c4cccc(C5CCCN(C(=O)CNC6CC6)C5)c4)C4CCCCC4)CC3)CC2)c2ccc(Cl)cc2)CCN(c2ncnc3[nH]ccc23)CC1 (some centres unmarked) [Compound I-250]	1 to 5
NC1(C(=O)N[C@@H](CCN2CCC(OC3CCN(C(=O)[C@H](NC(=O)c4cccc(C5CCCN(C(=O)CNCc6ccc(F)cc6F)C5)c4)C4CCCCC4)CC3)CC2)c2ccc(Cl)cc2)CCN(c2ncnc3[nH]ccc23)CC1 (some centres unmarked) [Compound I-251]	0.5 to 1
NC1(C(=O)N[C@@H](CCN2CCC(OC3CCN(C(=O)[C@H](NC(=O)c4cccc(C5CC5)c4F)C4CCCCC4)CC3)CC2)c2ccc(Cl)cc2)CCN(c2ncnc3[nH]ccc23)CC1 [Compound I-260]	1 to 5
CCc1cccc(-c2cc(F)c(C(=O)N3CCC(CN4CCN(CC[C@H](NC(=O)C5(N)CCN(c6ncnc7[nH]ccc67)CC5)c5ccc(Cl)cc5)CC4)CC3)c(F)c2)c1 [Compound I-263]	1 to 5
C[C@@H]1C[C@@H](O)c2ncnc(N3CCN(C(=O)[C@H](CNCCNC(=O)CN4CCC(OC5CCN(C(=O)[C@H](NC(=O)c6cccc(C7CCCN(C(=O)C8CC8)C7)c6F)C6CCCCC6)CC5)CC4)c4ccc(Cl)cc4)CC3)c21 (some centres unmarked) [Compound I-264]	1 to 5
C[C@@H]1C[C@@H](O)c2ncnc(N3CCN(C(=O)[C@H](CCN4CCC(CN5CCN(C(=O)[C@H](NC(=O)c6cccc(C7CCCN(C(=O)C8CC8)C7)c6)C6CCCCC6)CC5)CC4)c4ccc(Cl)cc4)CC3)c21 (some centres unmarked) [Compound I-265]	1 to 5
C[C@@H]1C[C@@H](O)c2ncnc(N3CCN(C(=O)[C@@H](CCN4CCC(CN5CCN(C(=O)[C@H](NC(=O)c6cccc(C7CCCN(C(=O)C8CC8)C7)c6)C6CCCCC6)CC5)CC4)c4ccc(Cl)cc4)CC3)c21 (some centres unmarked) [Compound I-266]	1 to 5
NC1(C(=O)N[C@@H](CCN2CCN(C(=O)CN3CCC(OC4CCN(C(=O)[C@H](NC(=O)c5cccc(C6CC6)c5F)C5CCCCC5)CC4)CC3)CC2)c2ccc(Cl)cc2)CCN(c2ncnc3[nH]ccc23)CC1 [Compound I-270]	1 to 5
